In ChEMBL document CHEMBL6109072, “Discovery of highly potent dual GSPT1/BRD4 degraders with anti-AML activity” (Eur J Med Chem, 2025):
Calls of active or inactive are those of the source. The calls are words filed in the database; no cut-off is given here.

Columns and labels:
OCI-AML-3 = test: Antiproliferative activity against human OCI-AML-3 cells incubated for 3 days by CCK8 assay; format: functional, cell-based
MOLM-13 [1] = test: Antiproliferative activity against human MOLM-13 cells incubated for 3 days by CCK8 assay; format: functional, cell-based; details: for IC50: MOLM-13, 72 h
Raji = test: Antiproliferative activity against human Raji cells incubated for 3 days by CCK8 assay; format: functional, cell-based; details: 72 h
KARPAS-299 = test: Antiproliferative activity against human KARPAS-299 cells incubated for 3 days by CCK8 assay; format: functional, cell-based
[2] = target: T1, Protein cereblon/Bromodomain-containing protein 4 (Homo sapiens, UniProt O60885+Q96SW2); test: PROTAC activity at CRBN/BRD4 in human MOLM-13 cells assessed as BRD4 degradation at 1 uM incubated for 24 hrs by Western blot analysis; format: cell-based
T1 sequence (Q96SW2 whole entry, looked up, other chains not shown): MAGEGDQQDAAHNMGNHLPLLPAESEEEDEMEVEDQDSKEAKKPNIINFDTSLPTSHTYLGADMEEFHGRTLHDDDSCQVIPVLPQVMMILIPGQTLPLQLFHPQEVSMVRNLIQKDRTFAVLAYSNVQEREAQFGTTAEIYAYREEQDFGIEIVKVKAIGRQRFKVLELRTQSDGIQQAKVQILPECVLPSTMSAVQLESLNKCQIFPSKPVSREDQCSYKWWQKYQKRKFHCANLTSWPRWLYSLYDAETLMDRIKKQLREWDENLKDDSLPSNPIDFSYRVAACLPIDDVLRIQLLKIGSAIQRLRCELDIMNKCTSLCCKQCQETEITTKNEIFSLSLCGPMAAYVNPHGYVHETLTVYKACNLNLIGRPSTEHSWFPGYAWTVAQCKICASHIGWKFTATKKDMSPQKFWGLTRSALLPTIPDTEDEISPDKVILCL

SU-DHL-1 = test: Antiproliferative activity against human SU-DHL-1 cells incubated for 3 days by CCK8 assay; format: functional, cell-based; details: SU-DHL-1, 72 h
Daudi = test: Antiproliferative activity against human Daudi cells incubated for 3 days by CCK8 assay; format: functional, cell-based; details: 72 h
MOLM-13 [3] = test: Antiproliferative activity against human MOLM-13 cells assessed as cell viability at 0.1 uM incubated for 3 days by CCK8 assay relative to control; format: functional; details: MOLM-13, 72 h, time 3 day, read-out: Activity
NB-4 = test: Antiproliferative activity against human NB4 cells incubated for 3 days by CCK8 assay; format: functional, cell-based; details: for IC50: NB-4, 72 h
HL-60 = test: Antiproliferative activity against human HL-60 cells incubated for 3 days by CCK8 assay; format: functional, cell-based; details: for IC50: HL-60, 72 h
[4] = target: T1, Protein cereblon/Bromodomain-containing protein 4; test: PROTAC activity at CRBN/BRD4 in human MOLM-13 cells assessed as BRD4 degradation at 100 nM incubated for 6 hrs by Western blot analysis; format: cell-based
[5] = target: Protein cereblon/Eukaryotic peptide chain release factor GTP-binding subunit ERF3A (Homo sapiens, UniProt Q96SW2+P15170); test: PROTAC activity at CRBN/GSPT1 in human MOLM-13 cells assessed as GSPT1 degradation at 100 nM incubated for 6 hrs by Western blot analysis; format: cell-based
Protein cereblon/Eukaryotic peptide chain release factor GTP-binding subunit ERF3A, sequence (P15170 whole entry, looked up): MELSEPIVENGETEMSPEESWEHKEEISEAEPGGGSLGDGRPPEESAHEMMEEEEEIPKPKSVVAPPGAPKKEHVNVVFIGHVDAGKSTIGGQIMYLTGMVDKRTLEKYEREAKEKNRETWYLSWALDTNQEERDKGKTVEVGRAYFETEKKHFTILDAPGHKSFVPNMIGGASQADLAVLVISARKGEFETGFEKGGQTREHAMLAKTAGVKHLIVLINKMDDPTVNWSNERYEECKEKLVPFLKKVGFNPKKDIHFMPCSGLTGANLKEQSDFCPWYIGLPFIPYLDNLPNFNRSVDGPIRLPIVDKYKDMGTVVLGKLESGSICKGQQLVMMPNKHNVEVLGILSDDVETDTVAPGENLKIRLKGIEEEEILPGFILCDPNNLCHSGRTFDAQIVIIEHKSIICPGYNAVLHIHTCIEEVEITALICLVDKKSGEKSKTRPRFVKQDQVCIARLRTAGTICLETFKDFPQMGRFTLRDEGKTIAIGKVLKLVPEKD
Protein cereblon/Eukaryotic peptide chain release factor GTP-binding subunit ERF3A, sequence (Q96SW2 whole entry, looked up): as the sequence (Q96SW2 whole entry, looked up, other chains not shown) above

[6] = Toxicity in IL2Rg-null NSG mouse xenografted with human MOLM-13 cells expressing GFP-Fluc assessed as animal death measured after 48 hrs
THP-1 = test: Antiproliferative activity against human THP-1 cells incubated for 3 days by CCK8 assay; format: functional, cell-based; details: for IC50: THP-1, 72 h
[7] = Toxicity in IL2Rg-null NSG mouse xenografted with human MOLM-13 cells expressing GFP-Fluc assessed as hemolysis measured after 48 hrs
[8] = target: T2, Protein cereblon/Eukaryotic peptide chain release factor GTP-binding subunit ERF3A (Mus musculus) (UniProt Q8C7D2+Q8R050); test: PROTAC activity at CRBN/GSPT1 in mouse A9 cells harboring pCDH-BSD-M6/pIRES-GFluc assessed as GSPT1 degradation at 0.8 to 20 uM incubated for 48 hrs by Western blot analysis; format: cell-based; details: dose 0.8-20 µM
T2 sequence (Q8C7D2 whole entry, looked up): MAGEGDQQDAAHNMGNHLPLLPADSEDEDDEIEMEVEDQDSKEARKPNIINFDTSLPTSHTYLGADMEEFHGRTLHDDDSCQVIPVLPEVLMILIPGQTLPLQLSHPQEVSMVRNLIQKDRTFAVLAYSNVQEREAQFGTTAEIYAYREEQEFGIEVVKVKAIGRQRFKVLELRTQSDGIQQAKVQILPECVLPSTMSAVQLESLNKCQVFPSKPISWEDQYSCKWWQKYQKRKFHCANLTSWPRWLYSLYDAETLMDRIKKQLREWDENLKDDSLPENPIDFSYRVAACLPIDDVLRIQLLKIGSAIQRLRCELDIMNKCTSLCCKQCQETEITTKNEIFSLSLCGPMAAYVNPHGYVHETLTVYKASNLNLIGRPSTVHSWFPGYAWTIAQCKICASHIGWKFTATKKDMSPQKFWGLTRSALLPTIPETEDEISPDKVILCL
T2 sequence (Q8R050 whole entry, looked up): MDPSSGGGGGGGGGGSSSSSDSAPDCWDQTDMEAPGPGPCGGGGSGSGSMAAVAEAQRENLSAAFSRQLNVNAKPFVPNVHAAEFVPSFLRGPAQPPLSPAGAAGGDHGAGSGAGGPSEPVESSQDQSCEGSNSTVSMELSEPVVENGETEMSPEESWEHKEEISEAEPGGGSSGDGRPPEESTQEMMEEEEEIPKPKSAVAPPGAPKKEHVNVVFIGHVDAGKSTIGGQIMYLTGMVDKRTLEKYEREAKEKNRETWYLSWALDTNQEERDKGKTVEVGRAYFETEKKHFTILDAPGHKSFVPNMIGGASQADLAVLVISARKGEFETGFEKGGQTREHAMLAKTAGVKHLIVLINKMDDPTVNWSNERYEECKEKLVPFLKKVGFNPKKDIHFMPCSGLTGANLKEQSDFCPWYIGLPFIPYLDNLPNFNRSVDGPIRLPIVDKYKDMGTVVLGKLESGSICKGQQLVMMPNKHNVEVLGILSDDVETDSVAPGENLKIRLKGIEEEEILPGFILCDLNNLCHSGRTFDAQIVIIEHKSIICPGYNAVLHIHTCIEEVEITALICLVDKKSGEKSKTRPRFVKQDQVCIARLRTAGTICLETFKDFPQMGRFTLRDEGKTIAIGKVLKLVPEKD

[9] = target: T2, Protein cereblon/Eukaryotic peptide chain release factor GTP-binding subunit ERF3A (Mus musculus); test: PROTAC activity at CRBN/GSPT1 in mouse A9 cells assessed as fold increase in translational readthrough activity at 0.8 to 20 uM incubated for 48 hrs by Western blot analysis relative to control; format: cell-based; details: dose 0.8-20 µM
A9 = test: Effect on eRF1 expression in mouse A9 cells harboring pCDH-BSD-M6/pIRES-GFluc at 0.8 to 20 uM incubated for 48 hrs by Western blot analysis; format: functional, cell-based; details: dose 0.8-20 µM
[10] = target: T2, Protein cereblon/Eukaryotic peptide chain release factor GTP-binding subunit ERF3A (Mus musculus); test: PROTAC activity at CRBN/GSPT1 in mouse A9 cells harboring pCDH-BSD-M6/pIRES-GFluc assessed as increase in translational readthrough activity at 0.8 to 20 uM incubated for 48 hrs by Western blot analysis; format: cell-based; details: dose 0.8-20 µM

| Structure (SMILES) | IC50 (MOLM-13 [1]) | Activity [2] | IC50 (OCI-AML-3; Homo sapiens, OCI-AML-3, 72 h) | IC50 (Raji) | IC50 (KARPAS-299; Homo sapiens, KARPAS-299, 72 h) | viability at 0.1 µM (MOLM-13 [3]) | other results |
| --- | --- | --- | --- | --- | --- | --- | --- |
| O=C1CCC(N2Cc3cc(CNC(=O)C(F)(F)c4ccc(Cl)cc4)ccc3C2=O)C(=O)N1 (centres undefined) | 181 nM | Active | > 10000 nM | > 10000 nM | > 10000 nM | – | – |
| Cc1sc2c(c1C)C(c1ccc(Cl)cc1)=N[C@@H](CC(=O)N1CCN(C3CCN(c4ccc5c(c4)C(=O)N(C4CCC(=O)NC4=O)C5=O)CC3)CC1)c1nnc(C)n1-2 (some centres undefined) | 6.07 nM | Active | 17.3 nM | 13.9 nM | 20.6 nM | 6.8% | IC50 (SU-DHL-1): 11.1 nM; IC50 (Daudi): 10.2 nM; IC50 (NB-4): 4.26 nM; IC50 (HL-60): 7.38 nM; Activity [4]: Active; Activity [5]: Active; Activity [6]: Toxic; IC50 (THP-1): 16.4 nM; Activity [7]: Toxic |
| Cc1sc2c(c1C)C(c1ccc(Cl)cc1)=N[C@@H](CC(=O)N1CC(N3CCN(c4cccc5c4C(=O)N(C4CCC(=O)NC4=O)C5=O)CC3)C1)c1nnc(C)n1-2 (some centres undefined) | – | – | – | – | – | 124% | – |
| Cc1sc2c(c1C)C(c1ccc(Cl)cc1)=N[C@@H](CC(=O)N1CCC(CN3CCN(c4cccc5c4C(=O)N(C4CCC(=O)NC4=O)C5=O)CC3)CC1)c1nnc(C)n1-2 (some centres undefined) | – | – | – | – | – | 79.6% | – |
| Cc1sc2c(c1C)C(c1ccc(Cl)cc1)=N[C@@H](CC(=O)NCCNc1cccc3c1C(=O)N(C1CCC(=O)NC1=O)C3=O)c1nnc(C)n1-2 (some centres undefined) | 150 nM | Active | 325 nM | 183 nM | 820 nM | – | IC50 (SU-DHL-1): 195 nM; IC50 (Daudi): 266 nM; Activity [8]: Active; IC50 (OCI-AML-3; oci-aml-3): 381 nM; Activity (OCI-AML-3; time 3.0 day): Active; IC50 (NB-4): 92.6 nM; Activity (NB-4; time 3.0 day): Active; fold change (FC) [9]: 7; IC50 (HL-60): 343 nM; Activity (HL-60; time 3.0 day): Active; Activity (A9): No effect; Activity (MOLM-13 [1]; time 3.0 day): Active; Activity [10]: Active; IC50 (KARPAS-299; karpas-299): 913 nM; IC50 (THP-1): 553 nM; Activity (THP-1; time 3.0 day): Active |
| Cc1sc2c(c1C)C(c1ccc(Cl)cc1)=N[C@@H](CC(=O)N1CCN(C3CN(c4cccc5c4C(=O)N(C4CCC(=O)NC4=O)C5=O)C3)CC1)c1nnc(C)n1-2 (some centres undefined) | – | – | – | – | – | 66.2% | – |
| Cc1sc2c(c1C)C(c1ccc(Cl)cc1)=N[C@@H](CC(=O)N1CCC(N3CCN(c4cccc5c4C(=O)N(C4CCC(=O)NC4=O)C5=O)CC3)CC1)c1nnc(C)n1-2 (some centres undefined) | – | – | – | – | – | 72% | – |
| Cc1sc2c(c1C)C(c1ccc(Cl)cc1)=N[C@@H](CC(=O)N1CC(CN3CCN(c4cccc5c4C(=O)N(C4CCC(=O)NC4=O)C5=O)CC3)C1)c1nnc(C)n1-2 (some centres undefined) | – | – | – | – | – | 110% | – |

Now from value to compound, other results behind:

| IC50 (MOLM-13 [1]) | Activity [2] | Structure (SMILES) | IC50 (OCI-AML-3; Homo sapiens, OCI-AML-3, 72 h) | IC50 (Raji) | IC50 (KARPAS-299; Homo sapiens, KARPAS-299, 72 h) | viability at 0.1 µM (MOLM-13 [3]) | other results |
| --- | --- | --- | --- | --- | --- | --- | --- |
| 422 nM | – | Cc1sc2c(c1C)C(c1ccc(Cl)cc1)=N[C@@H](CC(=O)NCCCCNc1cccc3c1C(=O)N(C1CCC(=O)NC1=O)C3=O)c1nnc(C)n1-2 (some centres undefined) | 1210 nM | 936 nM | 7720 nM | – | – |
| 25.4 nM | – | Cc1sc2c(c1C)C(c1ccc(Cl)cc1)=N[C@@H](CC(=O)N1CCC(N3CCN(c4ccc5c(c4)C(=O)N(C4CCC(=O)NC4=O)C5=O)CC3)CC1)c1nnc(C)n1-2 (some centres undefined) | – | – | – | 7.55% | – |
| 46.6 nM | Active | Cc1sc2c(c1C)C(c1ccc(Cl)cc1)=N[C@@H](CC(=O)N1CCN(CC3CCN(c4cccc5c4C(=O)N(C4CCC(=O)NC4=O)C5=O)CC3)CC1)c1nnc(C)n1-2 (some centres undefined) | – | – | – | 18% | – |
| 18.7 nM | Active | Cc1sc2c(c1C)C(c1ccc(Cl)cc1)=N[C@@H](CC(=O)N1CCN(C3CN(c4ccc5c(c4)C(=O)N(C4CCC(=O)NC4=O)C5=O)C3)CC1)c1nnc(C)n1-2 (some centres undefined) | – | – | – | 7.24% | – |
| 61.4 nM | – | Cc1sc2c(c1C)C(c1ccc(Cl)cc1)=N[C@@H](CC(=O)N1CCC(CN3CCN(c4ccc5c(c4)C(=O)N(C4CCC(=O)NC4=O)C5=O)CC3)CC1)c1nnc(C)n1-2 (some centres undefined) | – | – | – | 15.5% | – |
| 33.8 nM | Active | Cc1sc2c(c1C)C(c1ccc(Cl)cc1)=N[C@@H](CC(=O)N1CC(CN3CCN(c4ccc5c(c4)C(=O)N(C4CCC(=O)NC4=O)C5=O)CC3)C1)c1nnc(C)n1-2 (some centres undefined) | – | – | – | 7.45% | – |
| 37.2 nM | Active | Cc1sc2c(c1C)C(c1ccc(Cl)cc1)=N[C@@H](CC(=O)N1CCN(C3CCN(c4cccc5c4C(=O)N(C4CCC(=O)NC4=O)C5=O)CC3)CC1)c1nnc(C)n1-2 (some centres undefined) | – | – | – | 19.3% | – |
| 74.2 nM | – | Cc1sc2c(c1C)C(c1ccc(Cl)cc1)=N[C@@H](CC(=O)N1CC(N3CCN(c4ccc5c(c4)C(=O)N(C4CCC(=O)NC4=O)C5=O)CC3)C1)c1nnc(C)n1-2 (some centres undefined) | – | – | – | 9.49% | – |
| 14.9 nM | Active | Cc1sc2c(c1C)C(c1ccc(Cl)cc1)=N[C@@H](CC(=O)N1CCN(CC3CN(c4cccc5c4C(=O)N(C4CCC(=O)NC4=O)C5=O)C3)CC1)c1nnc(C)n1-2 (some centres undefined) | 75.3 nM | 605 nM | 3360 nM | 11.7% | IC50 (SU-DHL-1): 117 nM; IC50 (Daudi): 257 nM; IC50 (NB-4): 19.2 nM; IC50 (HL-60): 63.7 nM; Activity [4]: Active; Activity [5]: Active; IC50 (THP-1): 103 nM |
| 13.5 nM | Active | Cc1sc2c(c1C)C(c1ccc(Cl)cc1)=N[C@@H](CC(=O)N1CCN(CC3CN(c4ccc5c(c4)C(=O)N(C4CCC(=O)NC4=O)C5=O)C3)CC1)c1nnc(C)n1-2 (some centres undefined) | 27.7 nM | 82.1 nM | 330 nM | 8.1% | IC50 (SU-DHL-1): 35 nM; IC50 (Daudi): 178 nM; IC50 (NB-4): 6.03 nM; IC50 (HL-60): 19.1 nM; Activity [4]: Active; Activity [5]: Active; IC50 (THP-1): 32 nM |
